Measured values from patent publication US10626081B2, “Farnesoid X receptor agonists and uses thereof” (Metacrine, Inc., priority 2015, dated 2020).

Tests used:
FXR [1] = target: T1, FXR (Homo sapiens, UniProt Q96RI1); assay: In Vitro FXR Assay (TK): TK-ECRE-luc reporter in transfected CV-1 cells; assay type: cell-based; details: CV-1 cells transfected with hFXR, hRXR, 18 h incubation, luminescence
T1 construct: expressed in transfected cells; host or cells: CV-1 cells
T1 sequence (Q96RI1 1-486): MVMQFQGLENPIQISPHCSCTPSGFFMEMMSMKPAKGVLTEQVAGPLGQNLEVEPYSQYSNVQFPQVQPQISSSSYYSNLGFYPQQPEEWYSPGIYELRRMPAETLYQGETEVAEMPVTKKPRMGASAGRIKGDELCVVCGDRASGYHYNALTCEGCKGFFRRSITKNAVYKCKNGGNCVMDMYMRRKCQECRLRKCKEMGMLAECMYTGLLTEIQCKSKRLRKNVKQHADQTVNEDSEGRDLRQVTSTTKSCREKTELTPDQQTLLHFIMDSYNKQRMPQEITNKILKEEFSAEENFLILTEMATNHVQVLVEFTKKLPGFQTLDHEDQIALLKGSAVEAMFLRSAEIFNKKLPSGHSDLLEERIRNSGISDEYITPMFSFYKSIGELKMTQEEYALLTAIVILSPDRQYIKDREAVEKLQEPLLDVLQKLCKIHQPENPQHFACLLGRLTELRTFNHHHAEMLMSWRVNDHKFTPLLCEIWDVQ
T1 sequence (P19793 1-462 partner): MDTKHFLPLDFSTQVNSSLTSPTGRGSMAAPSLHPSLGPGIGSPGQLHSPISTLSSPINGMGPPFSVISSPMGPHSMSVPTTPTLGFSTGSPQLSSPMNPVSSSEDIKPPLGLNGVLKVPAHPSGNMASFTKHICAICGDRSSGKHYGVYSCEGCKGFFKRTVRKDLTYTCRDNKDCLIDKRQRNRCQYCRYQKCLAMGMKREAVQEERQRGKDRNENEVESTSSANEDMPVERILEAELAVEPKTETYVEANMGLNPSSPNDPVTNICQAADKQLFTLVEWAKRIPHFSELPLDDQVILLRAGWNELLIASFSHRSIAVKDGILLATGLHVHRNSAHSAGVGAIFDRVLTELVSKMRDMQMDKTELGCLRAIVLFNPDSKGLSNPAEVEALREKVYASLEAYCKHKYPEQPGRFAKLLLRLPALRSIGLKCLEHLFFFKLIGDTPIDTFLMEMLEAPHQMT
How it was run: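 CV-1 cells in charcoal-stripped FBS medium were transiently cotransfected with hFXR, hRXR, TK-ECRE-luc and pCMX-YFP plasmids. After 18 h, compounds serially diluted in DMSO were added for 18 h at 37 °C, 5% CO2, then cells were lysed and luminescence read.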

FXR [2] = target: T1, FXR; assay: In Vitro FXR Assay (PGL3): luciferase reporter in transfected CV-1 cells; assay type: cell-based; details: CV-1 cells transfected with hFXR, hRXR, PGL3-ECRE*6-luc; 18 h incubation; luminescence
Description: Example B-1: In Vitro FXR Assay (PGL3)
CV-1 cells were seeded at a density of 2,000,000 cells in a T175 flask with DMEM+10% charcoal double-stripped FBS and incubated at 37° C. in a 5% CO2 for 18 h (O/N).
After 18 h of incubation, the medium in the T175 flask was changed with fresh DMEM+10% charcoal super-stripped serum.
To prepare the transfection reaction mixture, the transfection reagent (X-tremeGENE HP from Roche, Cat #06 366 236 001) was added in to a 1.5 mL microcentrifuge tube labelled “A” at a ratio of 1:3 (DNA in transfection reagent in μL). OptiMEM medium (Life Technologies, Cat #31985-062) was added accordingly to provide a total volume of 1 mL. The transfection reaction mixture was then briefly vortexed and incubated at room temperature for 5 minutes.
In a separate 1.5 mL microcentrifuge tube labelled “B”, 100 μL OptiMEM and plasmids XPD90Gal pCMXhFXRfl, pCMXhRXRfl+PGL3-ECRE*6-luc+CMX-YFP in the ratio 2 μg:2 μg:18 μg:3 μg were added. This microcentrifuge tube “B” was then briefly vortexed and incubated at room temperature for 5 minutes.
The total volume in tube labelled “A” was then transferred in to tube labelled “B.” The mixture was then briefly vortexed and the transfection:DNA complex was then incubated for about 15-20 minutes at room temperature.
Following incubation, the transfection reagent/DNA mixture complex was then added to cells in the T175 flask and the cells were incubated at […] (O/N) at 37° C. in 5% CO2.
In a 96 well plate, a half logarithmic serial dilution was prepared. OptiMEM was used as the diluent. Using any of one of the compounds described herein, a compound stock solution of 10 mM was prepared. An initial 1:100 dilution was made into the first well for a final concentration of 100 μM. The final concentrations in the 96-well plate was prepared by using a multichannel pipette to transfer 5 μL of the diluted compound to 384-well plate in quadruplicate.
Cells in T175 flask were trypsinized and cells were resuspended in 40 mL phenol red free DMEM+10% charcoal super-stripped FBS. Typically, one T175 flask was sufficient to seed two 384 well plates. CV-1 cells were seeded at 45 μL cell suspension/well using a multi-channel pipet or a 384 multidrop dispenser. The cells were then incubated for 18 hrs, overnight.
After removing the plates from the incubator, the medium was flicked out of plate and 384 well plate was turned upside down onto paper towel. The remaining medium was gently tapped out. 15 μL lysis buffer was then added to each well using a multichannel pipet or a 384 well multi-drop dispenser. After incubation for 10 minutes at room temperature on shaker, 30 μL Luciferase buffer was added to each well. Luminescence counts were taken immediately using the Perkin Elmer Envision.
The ability of the compounds disclosed herein to […] FXR activity was quantified and the respective EC50 value was determined. Fex=fexaramine.

EC50 (FXR [1]) [µM]	Cmpd/Fex (ratio of the EC50 for the test compound relative to the EC50 of the Fexaramine control) (FXR [2])	Compound
1 to 10	++ (‘++’ means Cmpd/Fex > 10 & < 100)	CCOC(=O)N(Cc1ccc(-c2ccc(N(C)C)cc2)cc1)c1cccc(/C=C/C(=O)OC)c1 [compound 3, (E)-Methyl 3-(3-(((4′-(dimethylamino)-[1,1′-biphenyl]-4-yl)methyl)(ethoxycarbonyl)amino)phenyl)acrylate]
1 to 10	++ (‘++’ means Cmpd/Fex > 10 & < 100)	CCCC(=O)N(Cc1ccc(-c2ccc(N(C)C)cc2)cc1)c1cccc(/C=C/C(=O)OC)c1 [compound 2, (E)-Methyl 3-(3-(N-((4′-(dimethylamino)-[1,1′-biphenyl]-4-yl)methyl)butyramido)phenyl)acrylate]
1 to 10	+++ (‘+++’ means Cmpd/Fex < 10)	COC(=O)/C=C/c1cccc(N(Cc2ccc(-c3ccc(N4CCCC4)cc3)cc2)C(=O)C2CCCCC2)c1 [compound 48, (E)-Methyl 3-(3-(N-((4′-(pyrrolidin-1-yl)-[1,1′-biphenyl]-4-yl)methyl)cyclohexanecarboxamido)phenyl) acrylate]
1 to 10	+++ (‘+++’ means Cmpd/Fex < 10)	COC/C=C/c1cccc(N(Cc2ccc(-c3ccc(N(C)C)cc3)cc2)C(=O)C2CCCCC2)c1 [compound 44, (E)-N-((4′-(Dimethylamino)-[1,1′-biphenyl]-4-yl)methyl)-N-(3-(3-methoxyprop-1-en-1-yl)phenyl)cyclohexanecarboxamide]
1 to 10	+++ (‘+++’ means Cmpd/Fex < 10)	COC(=O)CCc1cc(C)cc(N(Cc2ccc(-c3ccc(N(C)C)cc3)cc2)C(=O)C2CCCCC2)c1 [compound 90, Methyl 3-(3-(N-((4′-(dimethylamino)-[1,1′-biphenyl]-4-yl)methyl)cyclohexanecarboxamido)-5-methylphenyl)propanoate]
1 to 10	+++ (‘+++’ means Cmpd/Fex < 10)	CCc1cc(/C=C/C(=O)OC)cc(N(Cc2ccc(-c3ccc(N(C)C)cc3)cc2)C(=O)C2CCCCC2)c1 [compound 85, (E)-Methyl 3-(3-(N-((4′-(dimethylamino)-[1,1′-biphenyl]-4-yl)methyl)cyclohexanecarboxamido)-5-ethylphenyl)acrylate]
≤ 1	+++ (‘+++’ means Cmpd/Fex < 10)	COC(=O)/C=C/c1cccc(N(Cc2ccc(-c3ccc(N(C)C)cc3)cc2)C(=O)[C@H]2CC[C@H](O)CC2)c1 [compound 19, trans-(E)-Methyl 3-(3-(N-((4′-(dimethylamino)-[1,1′-biphenyl]-4-yl)methyl)-4-hydroxycyclohexanecarboxamido)phenyl)acrylate]
1 to 10	++ (‘++’ means Cmpd/Fex > 10 & < 100)	COC(=O)/C=C/c1cccc(N(Cc2ccc(-c3ccc(N(C)C)cc3)cc2)C(=O)C2CCCCC2)c1C [compound 41, (E)-Methyl 3-(3-(N-((4′-(dimethylamino)-[1,1′-biphenyl]-4-yl)methyl)cyclohexanecarboxamido)-2-methylphenyl)acrylate]
≤ 1	+++ (‘+++’ means Cmpd/Fex < 10)	COC(=O)/C=C/c1cccc(N(Cc2ccc(-c3ccc(N(C)C)cc3)cc2)C(=O)[C@H]2CC[C@@H](O)CC2)c1 [compound 18, cis-(E)-Methyl 3-(3-(N-((4′-(dimethylamino)-[1,1′-biphenyl]-4-yl)methyl)-4-hydroxycyclohexanecarboxamido)phenyl)acrylate]
≤ 1	+++ (‘+++’ means Cmpd/Fex < 10)	COC(=O)/C=C/c1cccc(N(Cc2ccc(-c3ccc(N(C)C)c(F)c3)cc2)C(=O)C2CCCCC2)c1 [compound 73, (E)-Methyl 3-(3-(N-((4′-(dimethylamino)-3′-fluoro-[1,1′-biphenyl]-4-yl)methyl)cyclohexanecarboxamido)phenyl) acrylate]
≤ 1	+++ (‘+++’ means Cmpd/Fex < 10)	COC(=O)/C=C/c1cccc(N(Cc2ccc(-c3ccc(N(C)C)cc3)cc2)C(=O)CC(C)(C)C)c1 [compound 7, (E)-Methyl 3-(3-(N-((4′-(dimethylamino)-[1,1′-biphenyl]-4-yl)methyl)-3,3-dimethylbutanamido)phenyl)acrylate]
1 to 10	++ (‘++’ means Cmpd/Fex > 10 & < 100)	COC(=O)CCc1cccc(N(Cc2ccc(-c3ccc(N(C)C)cc3)cc2)C(=O)C2CCCCC2)c1 [compound 43, Methyl 3-(3-(N-((4′-(dimethylamino)-[1,1′-biphenyl]-4-yl)methyl)cyclohexanecarboxamido)phenyl) propanoate]
≤ 1	+++ (‘+++’ means Cmpd/Fex < 10)	COC(=O)/C=C/c1cccc(N(Cc2ccc(-c3cccc(C#N)c3)cc2)C(=O)C2CCCCC2)c1 [compound 24, (E)-Methyl 3-(3-(N-((3′-cyano-[1,1′-biphenyl]-4-yl)methyl)cyclohexanecarboxamido)phenyl)acrylate]
≤ 1	+++ (‘+++’ means Cmpd/Fex < 10)	COC(=O)/C=C/c1cccc(N(Cc2ccc(-c3ccc(N(C)C)cc3)cc2)C(=O)C2CCCC2)c1 [compound 14, (E)-Methyl 3-(3-(N-((4′-(dimethylamino)-[1,1′-biphenyl]-4-yl)methyl)cyclopentanecarboxamido)phenyl)acrylate]
1 to 10	+++ (‘+++’ means Cmpd/Fex < 10)	CN(C)c1ccc(-c2ccc(CN(C(=O)C3CCCCC3)c3cccc(/C=C/C(=O)OCCO)c3)cc2)cc1 [compound 86, (E)-2-Hydroxyethyl 3-(3-(N-((4′-(dimethylamino)-[1,1′-biphenyl]-4-yl)methyl)cyclohexanecarboxamido)phenyl) acrylate]

Compound	EC50 (FXR [1]) [µM]	Cmpd/Fex (ratio of the EC50 for the test compound relative to the EC50 of the Fexaramine control) (FXR [2])
COC(=O)/C=C/c1cccc(N(Cc2ccc(-c3ccc(N(C)C(=O)OC(C)(C)C)cc3)cc2)C(=O)C2CCCCC2)c1 [compound 60, (E)-Methyl 3-(3-(N-((4′-((tert-butoxycarbonyl)(methyl)amino)-[1,1′-biphenyl]-4-yl)methyl)cyclohexanecarboxamido)phenyl) acrylate]	> 10	+ (‘+’ means Cmpd/Fex > 100)
